Assay results: the supplement of paper PMC11451515

Experiments:
Experiment in all cases: AUC of viability dose-response curve (% viability x log10 dose units); higher = less sensitive
Details in all cases: 48 h
SEM cells = test system: SEM cells
Procedure, shortened: (§1)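 Seeding of medium-adapted leukemia cells was at 500 or 1000 cells/well in 1536-well plates, followed by 48 h at 37°C with library compounds in DMSO at 11 threefold doses from 47 μM to 0.79 nM. CellTiter-Glo One luminescence was normalised per plate to DMSO and cell-free wells and fitted as a four-parameter log-logistic function of log10 dose. Area under the curve was integrated by trapezoidal rule, with curves exceeding full viability scaled and curves failing quality control removed.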

P12-Ichikawa = test system: P12-Ichikawa
Procedure, shortened: as §1

NOMO1 = test system: NOMO1
Procedure, shortened: as §1

[1] = RPMI 5 mM glucose + 10% dialyzed FBS

Row | Structure (SMILES) | AUC of viability dose-response curve (SEM cells; HPLM + 10% dialyzed FBS) | AUC of viability dose-response curve (SEM cells; RPMI 5 mM glucose + 10% FBS) | AUC of viability dose-response curve (SEM cells; [1]) | AUC of viability dose-response curve (P12-Ichikawa; HPLM + 10% dialyzed FBS) | AUC of viability dose-response curve (P12-Ichikawa; RPMI 5 mM glucose + 10% FBS) | AUC of viability dose-response curve (P12-Ichikawa; [1]) | AUC of viability dose-response curve (NOMO1; HPLM + 10% dialyzed FBS) | AUC of viability dose-response curve (NOMO1; RPMI 5 mM glucose + 10% FBS) | AUC of viability dose-response curve (NOMO1; [1])
1 | CC/C(=C(\c1ccccc1)c1ccc(OCCN(C)C)cc1)c1ccccc1 | 434 | 425 | 435 | 472 | 461 | 465 | 457 | 458 | 450
2 | CN1CCN(c2cc(C(=O)Nc3ccc4c(c3)-c3c(c(C(N)=O)nn3-c3ccc(F)cc3)CC4)c(Cl)cn2)CC1 | 444 | 360 | 449 | 448 | 453 | 451 | 442 | 449 | 451
3 | Cc1nc(C(=O)NCC(=O)O)c(O)c2ccc(Oc3ccccc3)cc12 | 459 | 454 | 470 | 454 | 455 | 466 | 462 | 442 | 466
4 | Cc1nc(N)sc1-c1ccnc(Nc2ccc(N3CCOCC3)cc2)n1 | 382 | 368 | 359 | 389 | 392 | 399 | 447 | 447 | 432
5 | COC1=C(CC=C(C)C)C2=C(\C=C/C(=O)O2)C=C1 | – | – | – | 413 | 439 | 416 | 470 | 455 | 460
6 | COc1ccccc1N1CCN(CC(O)COc2cccc3ccccc23)CC1 (centres undefined) | 473 | 455 | 449 | 467 | 439 | 441 | 450 | 448 | 431
7 | Oc1ccc(-c2nc(-c3ccncc3)c(-c3ccc(F)cc3)[nH]2)cc1 | 289 | 251 | 247 | 388 | 427 | 410 | 366 | 412 | 420
8 | O=C1C(CCC(O)c2ccc(F)cc2)C(c2ccc(O)cc2)N1c1ccc(F)cc1 (centres undefined) | 477 | 470 | 466 | 472 | 472 | 465 | 461 | 435 | 469
9 | COc1ccc(-c2cc3c(C)nc(N)nc3n([C@H]3CC[C@H](OCCO)CC3)c2=O)cn1 | – | – | – | 351 | 299 | 304 | 286 | 322 | 278
10 | CC(=O)[C@H]1CC[C@H]2[C@@H]3C/C=C4/C[C@@H](O)CC[C@]4(C)[C@H]3CC[C@]12C | 455 | 470 | 460 | 462 | 461 | 463 | 463 | 472 | 462
11 | Clc1ccc(C(Cn2ccnc2)OCc2ccc(Sc3ccccc3)cc2)c(Cl)c1 (centres undefined) | 416 | 445 | 438 | 453 | 453 | 455 | 441 | 450 | 453
12 | CC=CC1=C(C(=O)O)N2C(=O)[C@@H](NC(=O)[C@H](N)c3ccc(O)cc3)[C@H]2SC1.O | 395 | 460 | 447 | 415 | 416 | 429 | 370 | 342 | 376
13 | C[C@@H](Oc1ccc2[nH]nc(/C=C/c3cnn(CCO)c3)c2c1)c1c(Cl)cncc1Cl | – | – | – | 386 | 385 | 374 | 401 | 379 | 381
14 | COC1=CC(=C2C(=O)N(COC/3=C/C(=O)N4\C=C/C=C(OCCN5CCCCC5)\C4=N3)[S+]([O-])(=O)C2=C1)C(C)C | 476 | 452 | 436 | 477 | 460 | 470 | 460 | 463 | 471
15 | NNC(=O)c1ccncc1 | – | – | – | 453 | 468 | 460 | 454 | 444 | 456
16 | CN1CCC(=C2c3ccccc3CCc3sccc32)CC1 | 453 | 459 | 464 | 472 | 471 | 465 | 460 | 477 | 466
17 | COc1cc([C@@H]2c3cc4c(cc3[C@@H](O[C@@H]3O[C@@H]5CO[C@@H](C)O[C@H]5[C@H](O)[C@H]3O)[C@H]3COC(=O)[C@H]23)OCO4)cc(OC)c1O | – | – | – | 268 | 239 | 244 | 345 | 314 | 311
18 | CCCCC(F)(F)[C@@]1(O)CC[C@H]2[C@@H](CC(=O)[C@@H]2CCCCCCC(=O)O)O1 | 455 | 459 | 456 | 451 | 444 | 456 | 446 | 447 | 411
19 | CC1(C)CCC(=C(\C1)C2=CC=C(Cl)C=C2)/CN3CCN(CC3)C4=CC(=C(C=C4)C(=O)N[S+]([O-])(=O)C5=CC=C(NCC6CCOCC6)C(=C5)[N+]([O-])=O)OC7=CN=C8[NH]C=CC8=C7 | 186 | 198 | 175 | 436 | 436 | 449 | 355 | 347 | 290
20 | Cc1ccc(C)c(OCCCC(C)(C)C(=O)O)c1 | 442 | 456 | 453 | 458 | 429 | 413 | 457 | 449 | 447
21 | CCOC\1=C(/C(=O)NC2=CC=C(OC3=C(Cl)C(=NC=C3)N)C(=C2)F)C(=O)N(\C=C1)C4=CC=C(F)C=C4 | 328 | 309 | 300 | 444 | 447 | 431 | 415 | 446 | 440
22 | OCCN1CCN(CCCN2c3ccccc3Sc3ccc(C(F)(F)F)cc32)CC1 | – | – | – | 403 | 402 | 418 | 411 | 420 | 454
23 | CCCC[N+]1(C)[C@@H]2CC(OC(=O)[C@H](CO)c3ccccc3)C[C@H]1[C@@H]1O[C@@H]12 (some centres undefined) | 462 | 471 | 475 | 452 | 450 | 460 | 420 | 431 | 450
24 | O=C1N\N=C(\C[C@@H]2CCN(C2)C(=O)C3CC3)N1C4=CC=C(C=C4)C5=CC=C6OC=CC6=C5 | – | – | – | 400 | 376 | 405 | 448 | 397 | 394

Row | Structure (SMILES) | AUC of viability dose-response curve (SEM cells; HPLM + 10% dialyzed FBS) | AUC of viability dose-response curve (SEM cells; RPMI 5 mM glucose + 10% FBS) | AUC of viability dose-response curve (SEM cells; [1]) | AUC of viability dose-response curve (P12-Ichikawa; HPLM + 10% dialyzed FBS) | AUC of viability dose-response curve (P12-Ichikawa; RPMI 5 mM glucose + 10% FBS) | AUC of viability dose-response curve (P12-Ichikawa; [1]) | AUC of viability dose-response curve (NOMO1; HPLM + 10% dialyzed FBS) | AUC of viability dose-response curve (NOMO1; RPMI 5 mM glucose + 10% FBS) | AUC of viability dose-response curve (NOMO1; [1])
25 | CCNC(=O)c1noc(-c2cc(C(C)C)c(O)cc2O)c1-c1ccc(CN2CCOCC2)cc1 | 225 | 224 | 232 | 333 | 302 | 312 | 253 | 240 | 248
26 | Cc1ccc([S+](=O)([O-])NC(=O)NN2CC3CCCC3C2)cc1 (centres undefined) | 369 | 334 | 337 | 388 | 378 | 371 | 433 | 436 | 439
27 | CNC(=O)c1cc(Oc2ccc(NC(=O)Nc3ccc(Cl)c(C(F)(F)F)c3)c(F)c2)ccn1 | 296 | 314 | 275 | 422 | 422 | 427 | 444 | 438 | 440
28 | CN1CCN(CC1)C/2=N/C3=CC=CC=C3NC4=C2C=C(C)S4 | 467 | 454 | 473 | 465 | 458 | 458 | – | – | –
29 | CO[C@H]1C[C@H]2OC[C@@]2(OC(C)=O)[C@H]3[C@H](OC(=O)C4=CC=CC=C4)[C@]5(O)C[C@H](OC(=O)[C@H](O)[C@@H](NC(=O)OC(C)(C)C)C6=CC=CC=C6)/C(=C(/[C@@H](OC)C(=O)[C@]13C)C5(C)C)C | – | – | – | 135 | 142 | 171 | 125 | 135 | 143
30 | O=C(O)CCc1ccc(NCc2cccc(Oc3ccccc3)c2)cc1 | 406 | 439 | 413 | 464 | 449 | 471 | 446 | 441 | 444
31 | O=P1(NCCCl)OCCCN1CCCl (centres undefined) | – | – | – | 424 | 402 | 391 | – | – | –
32 | COC1=CC=CC(=C1/C2=N/CC3=C(N=C(NC4=CC(=C(C=C4)C(O)=O)OC)N=C3)C5=CC=C(Cl)C=C25)F | 241 | 221 | 216 | 210 | 217 | 230 | 312 | 291 | 297
33 | O=C(c1ccc(C(=O)N2CCC(N3CCCC3)CC2)c(Nc2ccccc2)c1)N1CCC(N2CCCC2)CC1 | 443 | 461 | 462 | 468 | 466 | 465 | 462 | 452 | 458
34 | CCN(CC)CCNC(=O)c1ccc2nc(-c3ccccc3)c(-c3ccc(CN4CCC(n5c(=O)[nH]c6ccccc65)CC4)cc3)nc2c1 | 246 | 221 | 243 | 355 | 380 | 358 | 354 | 400 | 399
35 | CCN(CCO)CCCC(C)Nc1ccnc2cc(Cl)ccc12 (centres undefined) | – | – | – | 392 | 400 | 384 | 417 | 429 | 459
36 | COc1c(C)c2c(c(O)c1C/C=C(\C)CCC(=O)OCCN1CCOCC1)C(=O)OC2 | 405 | 396 | 427 | 406 | 393 | 400 | 402 | 412 | 408
37 | CC[P](CC)(CC)=[Au][S][C@@H]1O[C@H](COC(C)=O)[C@@H](OC(C)=O)[C@H](OC(C)=O)[C@H]1OC(C)=O | 327 | 336 | 315 | 375 | 339 | 331 | 357 | 344 | 354
38 | COCCNCCCn1c(C(=O)CF)c(-c2ccc(C)cc2)c2c(N)ncnc21 | 438 | 367 | 410 | 456 | 445 | 448 | 470 | 417 | 453
39 | N[S+](=O)([O-])c1cc2c(cc1Cl)NCN[S+]2(=O)[O-] | 450 | 442 | 412 | 466 | 468 | 474 | 468 | 477 | 470
40 | O=C(Nc1cccc2c(=O)cc(-c3nnn[nH]3)oc12)c1ccc(OCCCCc2ccccc2)cc1 | 378 | 371 | 392 | 424 | 416 | 389 | 433 | 384 | 404
41 | O=C(O)c1nn(Cc2ccc(Cl)cc2Cl)c2ccccc12 | 387 | 400 | 375 | 423 | 412 | 379 | – | – | –
42 | Cc1cccc(Nc2nc(N[C@@H]3CCCC[C@@H]3N)ncc2C(N)=O)c1 | – | – | – | 334 | 380 | 368 | 424 | 411 | 409
43 | COc1cc2nc(N3CCN(C(=O)c4ccco4)CC3)nc(N)c2cc1OC | 332 | 383 | 377 | – | – | – | 411 | 384 | 392
44 | COC1=CC2=C(C=C1CC3=C(F)C(=CC=C3)Cl)C(=O)\C(=C/N2[C@H](CO)C(C)C)C(O)=O | – | – | – | 446 | 421 | 423 | 445 | 452 | 454
45 | CON(C)C(=O)N1\N=C(/S[C@]1(CCCN)C2=CC=CC=C2)C3=CC(=CC=C3F)F | 130 | 103 | 105 | – | – | – | – | – | –
46 | CC(=O)O[C@@]12CO[C@@H]1C[C@H](O)[C@]3(C)[C@@H]2[C@H](OC(=O)C4=CC=CC=C4)[C@]5(O)C[C@H](O)/C(=C(/[C@@H](O)C3=O)C5(C)C)C | – | – | – | 421 | 411 | 426 | 423 | 430 | 430
47 | O=C(/C=C/c1cccnc1)NCCCCC1CCN(C(=O)c2ccccc2)CC1 | – | – | – | 81 | 93.4 | 98 | 102 | 125 | 113
48 | Cc1ccnc(N[S+](=O)([O-])c2ccc(NC(=O)Nc3ccc([S+](=O)([O-])Nc4nccc(C)n4)cc3)cc2)n1 | 236 | 180 | 210 | 274 | 279 | 270 | – | – | –
